From patent publication US20150320823A1, “NOVEL USE OF RICE, RICE BRAN OR RICE HULL EXTRACT AS AN HISTAMINE RECEPTOR ANTAGONIST” (KOREA FOOD RESEARCH INSTITUTE, priority 2011, published 2015)

System: GABAA-benzodiazepine receptor
Assay: Sleep-improving mechanism: pentobarbital sleep test with GABAA-benzodiazepine antagonist flumazenil (FLU)
Format: in vivo
Settings: mouse; FLU 8 mg/kg i.p. 10 min before sample p.o. (DZP 0.5 mg/kg; BEE 500 mg/kg); pentobarbital 45 mg/kg 45 min later

Q: For `CN1C(=O)CN=C(c2ccccc2)c2cc(Cl)ccc21` [DZP, diazepam], which “effect of flumazenil (FLU) on the sleep-improving effect (sleep latency, sleep duration)” value is on record?
A: had an effect
